# Results published in patent US20120034193A1, “TREATMENT OF NEUROTROPHIC FACTOR MEDIATED DISORDERS” (priority 2009, published 2012).
# Key:
# [1] = tested on: dopamine transporter (DAT); assay: Striatal DAT level in control and MPTP mice, 61 or 71 days of dosing; type: in vivo, C57 mice; details: 10 mg/kg/day oral
# Method: In a similar experiment, 10-week old male C57 mice received daily injections of saline or MPTP (25 mg/kg/day, i.p.) for 5 consecutive days (days 1-5) and oral administration of smilagenin (10 mg/kg/day) or vehicle (HPMC 0.5% w/v containing tween-80 0.2% v/v) for 61 days (days […]) or 71 days (days 2-72) after which time their brains were removed for quantification of striatal levels of DAT, marker of the extent of neuronal damage to dopaminergic neurones
# [2] = tested on: BDNF mRNA; assay: BDNF mRNA expression in rat cortical neurones after 48 h incubation (rt RT-PCR); type: cell-based; details: 10 μM, mean ± s.e.mean, n = 3
# Method: In a separate experiment, rat cortical neurones were cultured by modification of a method previously described (Eckenstein and Sofroniew, Journal of Neuroscience, 1983, 3, pp. 2286-2291). On day 8, the culture medium was changed to a medium containing vehicle (DMSO, 0.5%) or smilagenin (10 μM) for 48 h and the level of BDNF mRNA in the cortical neurones was assessed by rt RT-PCR.
# [3] = tested on: Phorbol Ester; assay: Binding assay; set-up: species or system Mouse; details: smilagenin 1 μM
# Method: (§1) The receptor binding was investigated using the following method: Sarsasapogenin was incubated with tissue or cell homogenate that expressed the receptor of interest and a known concentration a radiolabelled compound with affinity for the receptor of interest. After the incubation period the non-bound radiolabelled compound was removed and the amount of specific binding was quantified. The amount of specific binding in the presence and absence of sarsasapogenin were compared and the percent inhibition of the binding of the radiolabelled compound by sarsasapogenin was calculated. The source of the receptor, the incubation conditions, the radiolabelled compound used varied depending on each specific assay.
# (§2) Using the same methods as described above, the binding of smilagenin (1 μM) to the receptors listed in Table 2 below, and the effect of smilagenin on the activity of the enzymes listed in Table 2 below, were investigated.
# [4] = tested on: Platelet-Derived Growth Factor (PDGF); assay: Binding assay; set-up: species or system Mouse; details: smilagenin 1 μM
# Method: as §1, §2
# [5] = tested on: Transforming Growth Factor-β (TGF-β); assay: Binding assay; set-up: species or system Mouse; details: smilagenin 1 μM
# Method: as §1, §2
# [6] = Long term oral toxicity study, mice; type: in vivo; details: high doses, up to 52 weeks in mice
# [7] = molecular target: Protein Serine/Threonine Kinase, AKT3 (PRKBG) (Homo sapiens, UniProt Q9Y243); assay: Functional assay; type: biochemical; details: smilagenin 1 μM
# Sequence of Protein Serine/Threonine Kinase, AKT3 (PRKBG) (Q9Y243 whole entry): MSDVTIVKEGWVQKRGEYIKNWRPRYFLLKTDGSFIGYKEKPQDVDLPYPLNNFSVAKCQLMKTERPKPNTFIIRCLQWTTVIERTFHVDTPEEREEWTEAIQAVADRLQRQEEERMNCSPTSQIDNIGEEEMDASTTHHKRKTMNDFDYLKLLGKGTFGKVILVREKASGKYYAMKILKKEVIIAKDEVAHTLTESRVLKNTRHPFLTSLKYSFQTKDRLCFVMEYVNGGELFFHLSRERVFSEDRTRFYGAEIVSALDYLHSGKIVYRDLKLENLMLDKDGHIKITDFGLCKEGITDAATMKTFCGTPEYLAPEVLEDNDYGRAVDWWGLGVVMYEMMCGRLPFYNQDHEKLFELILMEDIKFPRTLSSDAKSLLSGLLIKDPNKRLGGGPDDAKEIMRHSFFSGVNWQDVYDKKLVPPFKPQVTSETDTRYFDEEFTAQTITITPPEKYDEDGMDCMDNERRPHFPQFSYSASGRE
# Method: (§3) The enzyme activity modulation was investigated using the following method: Sarsasapogenin was incubated with each enzyme plus a specific substrate for each enzyme. After the incubation period the reaction was stopped and the reduction of the specific substrate or the increase in a specific product in the absence and presence of sarsasapogenin was measured and the percent inhibition of the reaction in the presence of sarsasapogenin was calculated. The amount of enzyme used, the incubation conditions, the substrate used and the method of quantification varied depending on each specific assay.
# as §2
# [8] = molecular target: Protein Tyrosine Kinase, NTRK1 (trkA) (Homo sapiens, UniProt P04629); assay: Functional assay; type: biochemical; details: smilagenin 1 μM
# Sequence of Protein Tyrosine Kinase, NTRK1 (trkA) (P04629 33-796): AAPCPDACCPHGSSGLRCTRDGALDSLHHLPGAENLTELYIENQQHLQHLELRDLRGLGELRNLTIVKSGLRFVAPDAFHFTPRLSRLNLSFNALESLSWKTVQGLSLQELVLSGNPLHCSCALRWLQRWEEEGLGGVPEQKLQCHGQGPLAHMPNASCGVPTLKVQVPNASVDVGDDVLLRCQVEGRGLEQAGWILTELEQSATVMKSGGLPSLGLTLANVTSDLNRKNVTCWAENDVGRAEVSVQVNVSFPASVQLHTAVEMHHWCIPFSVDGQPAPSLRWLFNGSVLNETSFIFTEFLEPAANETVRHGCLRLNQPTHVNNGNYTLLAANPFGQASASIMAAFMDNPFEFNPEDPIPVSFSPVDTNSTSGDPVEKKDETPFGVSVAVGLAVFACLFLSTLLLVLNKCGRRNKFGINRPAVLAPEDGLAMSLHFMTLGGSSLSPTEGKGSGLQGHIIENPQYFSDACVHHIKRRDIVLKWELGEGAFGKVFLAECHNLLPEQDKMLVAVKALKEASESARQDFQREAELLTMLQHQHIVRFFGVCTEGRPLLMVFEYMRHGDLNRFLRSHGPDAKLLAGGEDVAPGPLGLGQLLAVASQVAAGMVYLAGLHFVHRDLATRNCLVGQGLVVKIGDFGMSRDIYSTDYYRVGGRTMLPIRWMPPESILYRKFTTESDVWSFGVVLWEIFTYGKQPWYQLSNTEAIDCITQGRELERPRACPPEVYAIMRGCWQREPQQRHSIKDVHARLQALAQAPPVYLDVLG
# Method: as §3, §2
# [9] = Functional assay; type: biochemical; details: smilagenin 1 μM
# Method: as §3, §2
# [10] = molecular target: Protein Serine/Threonine Kinase, MAPK13 (p38δ) (Homo sapiens, UniProt O15264); assay: Functional assay; type: biochemical; details: smilagenin 1 μM
# Sequence of Protein Serine/Threonine Kinase, MAPK13 (p38δ) (O15264 whole entry): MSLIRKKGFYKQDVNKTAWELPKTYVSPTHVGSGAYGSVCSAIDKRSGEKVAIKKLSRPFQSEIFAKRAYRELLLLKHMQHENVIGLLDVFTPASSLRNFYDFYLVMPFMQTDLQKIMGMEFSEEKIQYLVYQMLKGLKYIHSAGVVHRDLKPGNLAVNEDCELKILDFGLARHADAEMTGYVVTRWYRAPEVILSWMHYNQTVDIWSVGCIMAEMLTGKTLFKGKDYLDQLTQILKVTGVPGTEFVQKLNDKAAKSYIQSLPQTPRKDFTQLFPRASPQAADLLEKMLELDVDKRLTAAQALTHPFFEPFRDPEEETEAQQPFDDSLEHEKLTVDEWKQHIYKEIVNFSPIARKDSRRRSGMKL
# Method: as §3, §2
# [11] = molecular target: Aldose reductase (Rattus norvegicus, UniProt P07943); assay: Functional assay; type: biochemical; details: smilagenin 1 μM
# Method: as §3, §2
# [12] = molecular target: UDP Glucuronosyltransferase, UGT1A1 (Homo sapiens, UniProt P22309); assay: Functional assay; type: biochemical; details: smilagenin 1 μM
# Sequence of UDP Glucuronosyltransferase, UGT1A1 (P22309 26-533): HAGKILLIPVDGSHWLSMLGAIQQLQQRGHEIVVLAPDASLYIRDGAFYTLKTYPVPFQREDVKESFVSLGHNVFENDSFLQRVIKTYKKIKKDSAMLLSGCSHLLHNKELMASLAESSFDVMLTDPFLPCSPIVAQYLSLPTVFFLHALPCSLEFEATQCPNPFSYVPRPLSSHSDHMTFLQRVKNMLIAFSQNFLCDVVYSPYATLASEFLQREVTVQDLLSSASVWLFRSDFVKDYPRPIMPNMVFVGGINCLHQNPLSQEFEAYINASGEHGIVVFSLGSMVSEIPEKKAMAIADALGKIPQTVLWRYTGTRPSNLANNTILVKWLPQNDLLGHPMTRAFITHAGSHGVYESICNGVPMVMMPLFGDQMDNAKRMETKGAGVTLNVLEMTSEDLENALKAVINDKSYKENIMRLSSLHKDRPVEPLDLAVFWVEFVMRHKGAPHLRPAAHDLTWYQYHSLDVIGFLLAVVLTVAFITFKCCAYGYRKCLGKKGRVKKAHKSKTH
# Method: as §3, §2
# [13] = molecular target: Protein Serine/Threonine Kinase, MAPK1 (ERK2) (Homo sapiens, UniProt P28482); assay: Functional assay; type: biochemical; details: smilagenin 1 μM
# Sequence of Protein Serine/Threonine Kinase, MAPK1 (ERK2) (P28482 whole entry): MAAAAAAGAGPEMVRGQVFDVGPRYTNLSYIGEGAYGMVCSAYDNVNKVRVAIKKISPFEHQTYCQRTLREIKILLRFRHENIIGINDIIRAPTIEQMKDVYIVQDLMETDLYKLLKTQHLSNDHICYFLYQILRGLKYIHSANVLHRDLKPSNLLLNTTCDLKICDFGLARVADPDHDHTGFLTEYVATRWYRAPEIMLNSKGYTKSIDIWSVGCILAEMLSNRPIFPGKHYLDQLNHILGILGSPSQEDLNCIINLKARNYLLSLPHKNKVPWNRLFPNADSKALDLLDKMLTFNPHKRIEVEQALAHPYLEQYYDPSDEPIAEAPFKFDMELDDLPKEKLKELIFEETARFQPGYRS
# Method: as §3, §2
# [14] = molecular target: Protein Tyrosine Kinase, SRC (Homo sapiens, UniProt P12931); assay: Functional assay; type: biochemical; details: smilagenin 1 μM
# Sequence of Protein Tyrosine Kinase, SRC (P12931 whole entry): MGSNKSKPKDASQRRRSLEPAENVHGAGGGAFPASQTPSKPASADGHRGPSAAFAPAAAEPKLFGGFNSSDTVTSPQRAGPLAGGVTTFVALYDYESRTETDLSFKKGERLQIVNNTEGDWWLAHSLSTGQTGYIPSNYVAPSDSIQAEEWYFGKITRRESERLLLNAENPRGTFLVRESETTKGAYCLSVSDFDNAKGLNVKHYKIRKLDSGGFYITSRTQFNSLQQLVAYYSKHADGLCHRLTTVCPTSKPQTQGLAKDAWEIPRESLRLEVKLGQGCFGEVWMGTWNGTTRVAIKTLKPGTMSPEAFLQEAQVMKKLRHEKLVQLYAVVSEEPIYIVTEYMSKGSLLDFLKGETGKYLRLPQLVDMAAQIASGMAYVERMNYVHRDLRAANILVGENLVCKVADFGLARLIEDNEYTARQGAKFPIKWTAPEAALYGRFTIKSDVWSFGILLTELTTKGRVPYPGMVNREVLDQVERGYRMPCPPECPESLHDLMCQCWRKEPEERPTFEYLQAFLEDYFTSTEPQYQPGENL
# Method: as §3, §2
# [15] = molecular target: Protein Serine/Threonine Kinase, MAPK12 (p38γ) (Homo sapiens, UniProt P53778); assay: Functional assay; type: biochemical; details: smilagenin 1 μM
# Sequence of Protein Serine/Threonine Kinase, MAPK12 (p38γ) (P53778 whole entry): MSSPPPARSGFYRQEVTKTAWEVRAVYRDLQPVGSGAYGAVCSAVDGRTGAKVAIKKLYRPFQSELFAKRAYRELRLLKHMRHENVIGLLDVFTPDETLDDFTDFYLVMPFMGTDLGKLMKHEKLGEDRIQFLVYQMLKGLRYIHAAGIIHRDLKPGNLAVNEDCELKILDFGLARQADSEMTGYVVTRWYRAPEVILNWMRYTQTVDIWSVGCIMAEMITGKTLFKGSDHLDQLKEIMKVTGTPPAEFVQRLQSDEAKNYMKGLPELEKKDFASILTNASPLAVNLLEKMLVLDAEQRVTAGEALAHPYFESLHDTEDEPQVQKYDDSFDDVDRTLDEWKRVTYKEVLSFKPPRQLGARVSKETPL
# Method: as §3, §2
# [16] = molecular target: Protein Serine/Threonine Kinase, MAPK8 (JNK1) (Homo sapiens, UniProt P45983); assay: Functional assay; type: biochemical; details: smilagenin 1 μM
# Sequence of Protein Serine/Threonine Kinase, MAPK8 (JNK1) (P45983 whole entry): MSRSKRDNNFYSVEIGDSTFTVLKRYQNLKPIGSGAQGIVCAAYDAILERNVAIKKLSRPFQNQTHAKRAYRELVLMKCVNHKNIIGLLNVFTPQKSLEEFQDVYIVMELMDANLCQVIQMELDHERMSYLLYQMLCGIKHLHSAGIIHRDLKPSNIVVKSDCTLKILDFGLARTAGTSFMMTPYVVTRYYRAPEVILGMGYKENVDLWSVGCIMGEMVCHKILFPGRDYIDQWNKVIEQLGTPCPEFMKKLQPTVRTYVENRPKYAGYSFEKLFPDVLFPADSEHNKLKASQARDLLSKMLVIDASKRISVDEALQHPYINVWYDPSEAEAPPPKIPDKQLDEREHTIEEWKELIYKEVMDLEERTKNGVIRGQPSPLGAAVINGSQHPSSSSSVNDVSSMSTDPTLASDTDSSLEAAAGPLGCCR
# Method: as §3, §2
# [17] = molecular target: Protein Tyrosine Kinase, NTRK2 (trkB) (Homo sapiens, UniProt Q16620); assay: Functional assay; type: biochemical; details: smilagenin 1 μM
# Method: as §3, §2
# [18] = molecular target: Protein Serine/Threonine Kinase, AKT1 (PRKBA) (Homo sapiens, UniProt P31749); assay: Functional assay; type: biochemical; details: smilagenin 1 μM
# Sequence of Protein Serine/Threonine Kinase, AKT1 (PRKBA) (P31749 whole entry): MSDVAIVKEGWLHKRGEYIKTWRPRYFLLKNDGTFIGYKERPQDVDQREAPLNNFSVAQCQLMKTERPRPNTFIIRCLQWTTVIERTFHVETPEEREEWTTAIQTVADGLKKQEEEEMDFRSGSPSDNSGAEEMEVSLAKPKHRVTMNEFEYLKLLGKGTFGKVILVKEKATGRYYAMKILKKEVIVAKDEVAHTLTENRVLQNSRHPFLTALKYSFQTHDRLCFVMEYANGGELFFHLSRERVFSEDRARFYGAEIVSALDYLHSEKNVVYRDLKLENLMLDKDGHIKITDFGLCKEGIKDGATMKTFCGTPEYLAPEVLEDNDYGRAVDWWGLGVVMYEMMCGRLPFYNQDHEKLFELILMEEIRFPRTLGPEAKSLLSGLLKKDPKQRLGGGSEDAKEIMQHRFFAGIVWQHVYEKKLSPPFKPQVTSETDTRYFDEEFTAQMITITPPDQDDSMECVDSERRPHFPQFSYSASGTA
# Method: as §3, §2
# [19] = molecular target: Protein Serine/Threonine Kinase, MAPK11 (p38β) (Homo sapiens, UniProt Q15759); assay: Functional assay; type: biochemical; details: smilagenin 1 μM
# Sequence of Protein Serine/Threonine Kinase, MAPK11 (p38β) (Q15759 whole entry): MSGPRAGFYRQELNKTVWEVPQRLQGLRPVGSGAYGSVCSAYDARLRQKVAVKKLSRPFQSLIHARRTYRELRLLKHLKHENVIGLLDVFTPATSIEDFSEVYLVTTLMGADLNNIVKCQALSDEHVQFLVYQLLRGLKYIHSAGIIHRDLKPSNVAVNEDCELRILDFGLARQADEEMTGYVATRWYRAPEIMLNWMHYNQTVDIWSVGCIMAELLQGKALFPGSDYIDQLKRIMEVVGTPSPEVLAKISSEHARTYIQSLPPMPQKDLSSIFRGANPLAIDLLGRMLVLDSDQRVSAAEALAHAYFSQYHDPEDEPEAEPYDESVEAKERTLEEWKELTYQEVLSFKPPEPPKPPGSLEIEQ
# Method: as §3, §2
# [20] = molecular target: Protein Serine/Threonine Kinase, CAMK2D (KCC2D) (Homo sapiens, UniProt Q13557); assay: Functional assay; type: biochemical; details: smilagenin 1 μM
# Method: as §3, §2
# [21] = tested on: Adrenergic α1, non selective; assay: Receptor binding assay; set-up: species or system Rat; details: sarsasapogenin 10 μM
# Method: as §1
# [22] = tested on: Serotonin 5-HT1; assay: Receptor binding assay; set-up: species or system Rat; details: sarsasapogenin 10 μM
# Method: as §1
# [23] = tested on: Glutamate; assay: Receptor binding assay; set-up: species or system Rat; details: sarsasapogenin 10 μM
# Method: as §1
# [24] = tested on: GABAA; assay: Receptor binding assay; set-up: species or system Rat; details: sarsasapogenin 10 μM
# Method: as §1
# [25] = tested on: Adrenergic β, non selective; assay: Receptor binding assay; set-up: species or system Rat; details: sarsasapogenin 10 μM
# Method: as §1
# [26] = tested on: Adrenergic α2, non selective; assay: Receptor binding assay; set-up: species or system Rat; details: sarsasapogenin 10 μM
# Method: as §1
# [27] = molecular target: Acetylcholinesterase (Homo sapiens, UniProt P22303); assay: Enzyme activity assay; type: biochemical; details: sarsasapogenin 10 μM
# Method: as §3
# [28] = molecular target: Choline acetyltransferase (Homo sapiens, UniProt P28329); assay: Enzyme activity assay; type: biochemical; details: sarsasapogenin 100 μM
# Method: as §3
smiles,measurement,setting,value
"C[C@@H]1CC[C@@]2(OC1)O[C@H]1C[C@H]3[C@@H]4CC[C@@H]5C[C@@H](O)CC[C@]5(C)[C@H]4CC[C@]3(C)[C@H]1[C@@H]2C [Smilagenin, smilagenin]",DAT level ([I^125]-RTI binding in the striatum; nCi/g protein),"[1]; MPTP mice, days 2-72",256.2 ± 21.4^++++ nCi/g protein
same,DAT level ([I^125]-RTI binding in the striatum; nCi/g protein),"[1]; MPTP mice, days 12-72",280.3 ± 18.3^++++ nCi/g protein
same,DAT level ([I^125]-RTI binding in the striatum; nCi/g protein),"[1]; control mice (no MPTP), days 2-72",406.2 ± 21.8 nCi/g protein
same,Relative amount of BDNF mRNA (% of control),[2],103.9 ± 6.5 % of control
same,Effect (%),[3],NS (NS = No significant response. Significance was taken as ≧30% stimulation or inhibition)
same,Effect (%),[4],NS (NS = No significant response. Significance was taken as ≧30% stimulation or inhibition)
same,Effect (%),[5],NS (NS = No significant response. Significance was taken as ≧30% stimulation or inhibition)
same,Long term toxicity,[6],without showing any signs of toxicity or adverse events
same,Effect (%),[7],NS (NS = No significant response. Significance was taken as ≧30% stimulation or inhibition)
same,Effect (%),[8],NS (NS = No significant response. Significance was taken as ≧30% stimulation or inhibition)
same,Effect (%),[9],NS (NS = No significant response. Significance was taken as ≧30% stimulation or inhibition)
same,Effect (%),[10],NS (NS = No significant response. Significance was taken as ≧30% stimulation or inhibition)
same,Effect (%),[11],NS (NS = No significant response. Significance was taken as ≧30% stimulation or inhibition)
same,Effect (%),[12],NS (NS = No significant response. Significance was taken as ≧30% stimulation or inhibition)
same,Effect (%),[13],NS (NS = No significant response. Significance was taken as ≧30% stimulation or inhibition)
same,Effect (%),[14],NS (NS = No significant response. Significance was taken as ≧30% stimulation or inhibition)
same,Effect (%),[15],NS (NS = No significant response. Significance was taken as ≧30% stimulation or inhibition)
same,Effect (%),[16],NS (NS = No significant response. Significance was taken as ≧30% stimulation or inhibition)
same,Effect (%),[17],NS (NS = No significant response. Significance was taken as ≧30% stimulation or inhibition)
same,Effect (%),[18],NS (NS = No significant response. Significance was taken as ≧30% stimulation or inhibition)
same,Effect (%),[19],NS (NS = No significant response. Significance was taken as ≧30% stimulation or inhibition)
same,Effect (%),[20],NS (NS = No significant response. Significance was taken as ≧30% stimulation or inhibition)
"C[C@H]1CC[C@@]2(OC1)O[C@H]1C[C@H]3[C@@H]4CC[C@@H]5C[C@@H](O)CC[C@]5(C)[C@H]4CC[C@]3(C)[C@H]1[C@@H]2C [Sarsasapogenin, sarsasapogenin]",Effect (%),[21],NS (NS = No significant response. Significance was taken as ≧30% stimulation or inhibition)
same,Effect (%),[22],NS (NS = No significant response. Significance was taken as ≧30% stimulation or inhibition)
same,Effect (%),[23],NS (NS = No significant response. Significance was taken as ≧30% stimulation or inhibition)
same,Effect (%),[24],NS (NS = No significant response. Significance was taken as ≧30% stimulation or inhibition)
same,Effect (%),[25],NS (NS = No significant response. Significance was taken as ≧30% stimulation or inhibition)
same,Effect (%),[26],NS (NS = No significant response. Significance was taken as ≧30% stimulation or inhibition)
same,Effect (%),[27],NS (NS = No significant response. Significance was taken as ≧30% stimulation or inhibition)
same,Effect (%),[28],NS (NS = No significant response. Significance was taken as ≧30% stimulation or inhibition)
